Experimental findings from patent US7687490B2, “2-thioethenyl substituted carbapenem derivatives” (Meiji Seika Kaisha, Ltd., priority 2005, dated 2010) are described below.

Holding throughout (assay): Antimicrobial activity, MIC (Test Example 1)
What all share (type): cell-based

The subject of assay [1] is H. influenzae Rd. The settings on record: Sensitivity Disk agar-N+5% Horse blood, inoculants 10^6 CFU/ml; for MIC: Haemophilus influenzae, read-out: minimum inhibitory concentrations (MIC). As for the experimental part: (§1) The minimum inhibitory concentrations (MIC, μg/ml) of representative compounds, among the novel carbapenem derivatives of the present invention, to various pathogenic bacteria were measured in accordance with the method described in CHEMOTHERAPY, vol. 16, No. 1, 99, 1968. The culture medium for the measurement is Sensitivity Disk agar-N+5% Horse blood, and the amount of inoculants used is 10^6 CFU/ml.

Assay [2] deals with S. pneumoniae 197. The following applies: Streptococcus pneumoniae, Sensitivity Disk agar-N+5% Horse blood, inoculants 10^6 CFU/ml, read-out: minimum inhibitory concentrations (MIC). As for the experimental part: as §1
In assay [3] the test system is H. influenzae 870. The following applies: Sensitivity Disk agar-N+5% Horse blood, inoculants 10^6 CFU/ml; for MIC: Haemophilus influenzae, read-out: minimum inhibitory concentrations (MIC). How it is done: as §1
Assay [4] relates to S. aureus 209P JC-1. The settings on record: Sensitivity Disk agar-N+5% Horse blood, inoculants 10^6 CFU/ml; for MIC: Staphylococcus aureus, read-out: minimum inhibitory concentrations (MIC). How it is done:
as §1

Assay [5] relates to E. coli W4680. The settings on record: Sensitivity Disk agar-N+5% Horse blood, inoculants 10^6 CFU/ml; for MIC: Escherichia coli, read-out: minimum inhibitory concentrations (MIC). How it is done: as §1
Assay [6] relates to K. pneumoniae GN69. The following applies: Sensitivity Disk agar-N+5% Horse blood, inoculants 10^6 CFU/ml; for MIC: Klebsiella pneumoniae, read-out: minimum inhibitory concentrations (MIC). How it is done:
as §1

Assay [7] relates to S. pneumoniae R6. The settings on record: Sensitivity Disk agar-N+5% Horse blood, inoculants 10^6 CFU/ml; for MIC: Streptococcus pneumoniae, read-out: minimum inhibitory concentrations (MIC). How it is done:
as §1

Assay [8] concerns M. catarrhalis W-500. The following applies: Moraxella catarrhalis, W500, Sensitivity Disk agar-N+5% Horse blood, inoculants 10^6 CFU/ml, read-out: minimum inhibitory concentrations (MIC). As for the experimental part:
as §1

The subject of assay [9] is H. influenzae PRC44. The following applies: Sensitivity Disk agar-N+5% Horse blood, inoculants 10^6 CFU/ml; for MIC: Haemophilus influenzae, read-out: minimum inhibitory concentrations (MIC). How it is done: as §1
Assay [10] relates to S. pneumoniae PRC53. The following applies: Sensitivity Disk agar-N+5% Horse blood, inoculants 10^6 CFU/ml; for MIC: Streptococcus pneumoniae, read-out: minimum inhibitory concentrations (MIC). As for the experimental part: as §1

Converted amounts (≈) assume the structure as drawn.

As to `C[C@@H](O)[C@H]1C(=O)N2C(C(=O)[O-])=C(S/C=C\c3ncsc3CO)[C@H](C)[C@H]12.[Na+]` [Example 78, Sodium (1R,5S,6S)-6-((1R)-1-hydroxyethyl)-2-[[(Z)-2-(5-hydroxymethylthiazol-4-yl)ethen-1-yl]thio]-1-methyl-1-carbapen-2-em-3-carboxylate], the MIC in [1] amounted to 0.031 µg/mL; in assay [2], 0.25 µg/mL; in assay [3] it was 0.125 µg/mL; in [4], 0.031 µg/mL; in [5] it was 8 µg/mL; in assay [6] it was 8 µg/mL. Moreover, the MIC was determined as 0.008 µg/mL in [7], 0.25 µg/mL in [8], 0.063 µg/mL in assay [9] and 0.063 µg/mL in assay [10].
Regarding `C[C@@H](O)[C@H]1C(=O)N2C(C(=O)[O-])=C(S/C=C\c3scnc3C(=O)N(C)C)[C@H](C)[C@H]12.[Na+]` [Example 43, Sodium (1R,5S,6S)-2-[[(Z)-2-(4-N,N-dimethylcarbamoylthiazol-5-yl)ethen-1-yl]thio]-6-((1R)-1-hydroxyethyl)-1-methyl-1-carbapen-2-em-3-carboxylate], the “minimum inhibitory concentrations (MIC)” value in assay [1] stood at 0.031 µg/mL; in [3], 0.25 µg/mL; in assay [4], 0.063 µg/mL; in assay [5], 4 µg/mL; in [6] it was 4 µg/mL; in [7], 0.008 µg/mL. The “minimum inhibitory concentrations (MIC)” value in assay [9] came out at 0.125 µg/mL; in [10] it was 0.063 µg/mL.
Consider `C[C@@H](O)[C@H]1C(=O)N2C(C(=O)[O-])=C(S/C=C\c3nc(CO)cs3)[C@H](C)[C@H]12.[Na+]` [Example 44, Sodium (1R,5S,6S)-6-((1R)-1-hydroxyethyl)-2-[[(Z)-2-(4-hydroxymethylthiazol-2-yl)ethen-1-yl]thio]-1-methyl-1-carbapen-2-em-3-carboxylate], for which the MIC turned out to be 0.031 µg/mL in assay [1]; 0.25 µg/mL in [2]; 0.125 µg/mL in assay [3]; 0.031 µg/mL in assay [4]; 4 µg/mL in [5]; 4 µg/mL in assay [6]. In addition, the MIC was 0.008 µg/mL in [7], 0.063 µg/mL in [8], 0.063 µg/mL in assay [9] and 0.063 µg/mL in [10].
As for `C[C@@H](O)[C@H]1C(=O)N2C(C(=O)O)=C(SCCN=CN)C[C@H]12` [IPM, imipenem, reference compound], the MIC in assay [1] is 1 µg/mL (≈ 3.34 µM); in assay [2], 1 µg/mL (≈ 3.34 µM); in assay [3], 4 µg/mL (≈ 13.4 µM); in assay [4] it was 0.016 µg/mL (≈ 0.0534 µM); in [5], 0.125 µg/mL (≈ 0.418 µM); in [6], 0.125 µg/mL (≈ 0.418 µM). Moreover, the MIC in [7] turned out to be 0.008 µg/mL (≈ 0.0267 µM); in assay [8], 0.063 µg/mL (≈ 0.21 µM); in assay [9] it was 16 µg/mL (≈ 53.4 µM); in [10], 0.125 µg/mL (≈ 0.418 µM).
`C[C@@H](O)[C@H]1C(=O)N2C(C(=O)[O-])=C(S/C=C\c3scnc3CO)[C@H](C)[C@H]12.[Na+]` [Example 41, Sodium (1R,5S,6S)-6-((1R)-1-hydroxyethyl)-2-[[(Z)-2-(4-hydroxymethylthiazol-5-yl)ethen-1-yl]thio]-1-methyl-1-carbapen-2-em-3-carboxylate]: the MIC came to 0.031 µg/mL in assay [1]; 0.125 µg/mL in assay [2]; 0.125 µg/mL in [3]; 0.031 µg/mL in assay [4]; 1 µg/mL in assay [5]; 0.5 µg/mL in assay [6]. The MIC in assay [7] stood at 0.008 µg/mL; in assay [8], 0.063 µg/mL; in [9], 0.125 µg/mL; in assay [10], 0.063 µg/mL.
`C[C@@H](O)[C@H]1C(=O)N2C(C(=O)[O-])=C(S/C=C/c3scnc3CO)[C@H](C)[C@H]12.[Na+]` [Example 61, Sodium (1R,5S,6S)-6-((1R)-1-hydroxyethyl)-2-[[(E)-2-(4-hydroxymethylthiazol-5-yl)ethen-1-yl]thio]-1-methyl-1-carbapen-2-em-3-carboxylate]: the MIC was determined as 0.031 µg/mL in assay [1]; 1 µg/mL in assay [2]; 0.125 µg/mL in assay [3]; 0.063 µg/mL in [4]; 8 µg/mL in assay [5]; 8 µg/mL in assay [6]. In addition, the MIC was found to be 0.031 µg/mL in assay [7], 0.063 µg/mL in [8], 0.125 µg/mL in assay [9] and 0.25 µg/mL in assay [10].
